Measured values as given in patent US9056209B2, “Apigenin-containing composition” (Kao Corporation, priority 2009, dated 2015).

Test: Evaluation of stability of apigenin in composition (apigenin retention ratio by HPLC)
Format: physicochemical
Conditions: for Apigenin retention ratio (amount of apigenin stored at 50° C./amount of apigenin stored at −5° C.): apigenin about 9 ppm, stored one month
Procedure: Twenty gram of Roman chamomile was extracted with 200 mL of 50% butanediol for 7 days at room temperature, and then the extract was filtered to obtain 155 mL of a Roman chamomile extract. The evaporation residue in 1 mL of the extract was 18.6 mg, and the amount of apigenin in 1 mL of the extract was 305 ppm. This extract was used as the apigenin-containing extract in the following experiments. BHT was added to each of the solutions of various pH conditions, in an amount of 0, 1, 10, 100 and 500 ppm, respectively, and thus test solutions (final apigenin concentration: about 9 ppm) were prepared. The respective test solutions were stored for one month under the conditions of −5° C. and 50° C., and then the amount of apigenin in each of the solutions was measured by HPLC (Inertsil ODS-3 (internal diameter 3.0 mm, length 150 mm, particle size 5 μm) manufactured by GL Sciences, Inc., eluent: 50% aqueous solution of 25 mM potassium dihydrogen phosphate/50% methanol, column temperature: 40° C., detection: UV 340 nm). The ratio of the amount of apigenin stored at 50° C. with respect to that stored at −5° C. was determined as the apigenin retention ratio.

- apigenin retention ratio (in words) (mass ratio apigenin/BHT about 1 or greater, or pH of the solution less than 7, storage for a long time): high retention ratios were maintained
- apigenin retention ratio (in words) (mass ratio apigenin/BHT about less than 1 (BHT 10 ppm or more) and pH 7 or higher): the apigenin retention ratio decreased
- Apigenin retention ratio (amount of apigenin stored at 50° C./amount of apigenin stored at −5° C.) (pH 6, BHT 0 ppm): 103%
- Apigenin retention ratio (amount of apigenin stored at 50° C./amount of apigenin stored at −5° C.) (pH 6, BHT 1 ppm): 102%
- Apigenin retention ratio (amount of apigenin stored at 50° C./amount of apigenin stored at −5° C.) (pH 6, BHT 10 ppm): 98%
- Apigenin retention ratio (amount of apigenin stored at 50° C./amount of apigenin stored at −5° C.) (pH 6, BHT 100 ppm): 96%
- Apigenin retention ratio (amount of apigenin stored at 50° C./amount of apigenin stored at −5° C.) (pH 6, BHT 500 ppm): 96%
- Apigenin retention ratio (amount of apigenin stored at 50° C./amount of apigenin stored at −5° C.) (pH 6.5, BHT 0 ppm): 100%
- Apigenin retention ratio (amount of apigenin stored at 50° C./amount of apigenin stored at −5° C.) (pH 6.5, BHT 1 ppm): 94%
- Apigenin retention ratio (amount of apigenin stored at 50° C./amount of apigenin stored at −5° C.) (pH 6.5, BHT 10 ppm): 98%
- Apigenin retention ratio (amount of apigenin stored at 50° C./amount of apigenin stored at −5° C.) (pH 6.5, BHT 100 ppm): 96%
- Apigenin retention ratio (amount of apigenin stored at 50° C./amount of apigenin stored at −5° C.) (pH 6.5, BHT 500 ppm): 99%
- Apigenin retention ratio (amount of apigenin stored at 50° C./amount of apigenin stored at −5° C.) (pH 7, BHT 0 ppm): 96%
- Apigenin retention ratio (amount of apigenin stored at 50° C./amount of apigenin stored at −5° C.) (pH 7, BHT 1 ppm): 96%
- Apigenin retention ratio (amount of apigenin stored at 50° C./amount of apigenin stored at −5° C.) (pH 7, BHT 10 ppm): 98%
- Apigenin retention ratio (amount of apigenin stored at 50° C./amount of apigenin stored at −5° C.) (pH 7, BHT 100 ppm): 82%
- Apigenin retention ratio (amount of apigenin stored at 50° C./amount of apigenin stored at −5° C.) (pH 7, BHT 500 ppm): 35%
- Apigenin retention ratio (amount of apigenin stored at 50° C./amount of apigenin stored at −5° C.) (pH 8, BHT 0 ppm): 98%
- Apigenin retention ratio (amount of apigenin stored at 50° C./amount of apigenin stored at −5° C.) (pH 8, BHT 1 ppm): 99%
- Apigenin retention ratio (amount of apigenin stored at 50° C./amount of apigenin stored at −5° C.) (pH 8, BHT 10 ppm): 91%
- Apigenin retention ratio (amount of apigenin stored at 50° C./amount of apigenin stored at −5° C.) (pH 8, BHT 100 ppm): 73%
- Apigenin retention ratio (amount of apigenin stored at 50° C./amount of apigenin stored at −5° C.) (pH 8, BHT 500 ppm): 11%
SMILES: O=c1cc(-c2ccc(O)cc2)oc2cc(O)cc(O)c12 [Apigenin, apigenin]
